EC50, inhibition and MIC data for eight compounds are collected here from ChEMBL document CHEMBL1132889, “Synthesis and evaluation of 9,9-dimethylxanthene tricyclics against trypanothione reductase, Trypanosoma brucei, Trypanosoma cruzi and Leishmania donovani” (2000).

In brackets after ≈: the same amount, converted by molar mass.

Experiment [1] has as its system Trypanosoma brucei. As to the kind of experiment: The compound was evaluated in vitro for its inhibitory affect against Trypanosoma brucei; (0.02 mM Sb). The experiment is classed as functional. The conditions noted are these: read-out: ED50 (the source's name).
The target in experiment [2] is Trypanothione reductase (Trypanosoma cruzi) (UniProt P28593). Put plainly: The compound was evaluated in vitro for its inhibitory affect against trypanothione reductase. More on the design: concentration or dose not given beside the values. Particulars: concentration not given here.
Chain of Trypanothione reductase (Trypanosoma cruzi) (P28593 whole entry, looked up): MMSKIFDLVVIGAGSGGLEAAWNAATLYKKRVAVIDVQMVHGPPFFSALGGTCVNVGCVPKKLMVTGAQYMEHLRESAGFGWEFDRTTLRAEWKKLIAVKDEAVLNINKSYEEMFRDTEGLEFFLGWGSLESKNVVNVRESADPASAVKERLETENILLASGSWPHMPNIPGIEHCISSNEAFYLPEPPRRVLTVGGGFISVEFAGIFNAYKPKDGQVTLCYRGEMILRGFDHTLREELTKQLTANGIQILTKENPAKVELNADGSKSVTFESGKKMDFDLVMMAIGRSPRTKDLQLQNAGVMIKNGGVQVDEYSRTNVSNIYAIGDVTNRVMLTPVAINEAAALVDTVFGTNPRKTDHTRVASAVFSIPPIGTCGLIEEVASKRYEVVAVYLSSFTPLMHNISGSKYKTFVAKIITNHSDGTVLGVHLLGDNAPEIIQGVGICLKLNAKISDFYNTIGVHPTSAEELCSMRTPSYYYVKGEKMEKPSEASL
Experiment [3] can be described thus: Cytotoxicity against peritoneal macrophages of female CD1 mice culturing amastigote stages of Leishmania donovani. The conditions noted are these: Mus musculus. The experiment is classed as functional.
In experiment [4] the test system is Trypanosoma cruzi. Put plainly: The compound was evaluated in vitro for its inhibitory affect against Trypanosoma cruzi; (0.48 mM Sb). The experiment is classed as functional. The conditions noted are these: read-out: ED50 (the source's name).
Experiment [5] is described as follows: Cytotoxicity against peritoneal macrophages of female CD1 mice culturing amastigote stages of Trypanosoma cruzi. Particulars: Mus musculus. The experiment is classed as functional.
For experiment [6], the system named is Leishmania donovani. As to the kind of experiment: The compound was evaluated in vitro for its inhibitory affect against Leishmania donovani; (0.55 mM Sb). The experiment is classed as functional. The conditions noted are these: read-out: ED50 (the source's name).
For experiment [7], the system named is Trypanosoma brucei. Put plainly: The compound was evaluated in vitro for its inhibitory affect against Trypanosoma brucei; (0.098 mM Sb). The experiment is classed as functional. Particulars: read-out: ED50 (the source's name).
The test system of experiment [8] is Leishmania donovani. Put plainly: The compound was evaluated in vitro for its inhibitory affect against Leishmania donovani. The experiment is classed as functional. The conditions noted are these: read-out: ED50 (the source's name).
The subject of experiment [9] is Trypanosoma cruzi. As to the kind of experiment: The compound was evaluated in vitro for its inhibitory affect against Trypanosoma cruzi. The experiment is classed as functional. The conditions noted are these: read-out: ED50 (the source's name).
Experiment [10] has as its system Trypanosoma brucei. Put plainly: The compound was evaluated in vitro for its inhibitory affect against Trypanosoma brucei; (7.58 mM Sb). The experiment is classed as functional. The conditions noted are these: read-out: ED50 (the source's name).
For experiment [11], the system named is Trypanosoma brucei. As to the kind of experiment: The compound was evaluated in vitro for its inhibitory affect against Trypanosoma brucei; (0.14 mM Sb). Particulars: read-out: ED50 (the source's name). The experiment is classed as functional.
The subject of experiment [12] is Trypanosoma cruzi. As to the kind of experiment: In vitro inhibitory affect against Trypanosoma cruzi; (32.7 mM Sb). The experiment is classed as functional. The conditions noted are these: read-out: ED50 (the source's name).
The test system of experiment [13] is Trypanosoma brucei. Put plainly: The compound was evaluated in vitro for its inhibitory affect against Trypanosoma brucei; (0.03 mM Sb). The conditions noted are these: read-out: ED50 (the source's name). The experiment is classed as functional.
For experiment [14], the system named is Trypanosoma brucei. Put plainly: The compound was evaluated in vitro for its inhibitory affect against Trypanosoma brucei; (9.66 mM Sb). Particulars: read-out: ED50 (the source's name). The experiment is classed as functional.
Experiment [15] has as its system Leishmania donovani. Put plainly: The compound was evaluated in vitro for its inhibitory affect against Leishmania donovani; (32.6 mM Sb). The experiment is classed as functional. The conditions noted are these: read-out: ED50 (the source's name).
The test system of experiment [16] is Trypanosoma brucei. As to the kind of experiment: The compound was evaluated in vitro for its inhibitory affect against Trypanosoma brucei; (8.24 mM Sb). The conditions noted are these: read-out: ED50 (the source's name). The experiment is classed as functional.

By inhibition is commonly meant the relative decrease from the control value, in per cent. In the case of `CN(C)CCCNC(=O)c1cc(C(C)(C)C)cc2c1Oc1c(C(=O)NCCCN(C)C)cc(C(C)(C)C)cc1C2(C)C`, the EC50 in the experiment with Trypanosoma brucei [1] worked out at 0.01 µg/mL (≈ 0.0173 µM); with Trypanosoma cruzi [4], 0.28 µg/mL (≈ 0.484 µM); in the experiment with Leishmania donovani [6], 0.32 µg/mL (≈ 0.553 µM). Further, the inhibition in experiment [2] was determined as 28.4%. For the same compound, the MIC in [3] and in [5] was more than 30 µg/mL each time.
Consider `CN(C)CCC/N=C(\S)NCCCc1cccc2c1Oc1c(CCCN/C(S)=N/CCCN(C)C)cccc1C2(C)C`, for which the EC50 in the experiment with Trypanosoma brucei [7] is 0.06 µg/mL (≈ 0.0979 µM); in the experiment on Leishmania donovani [8], more than 30 µg/mL; in the experiment on Trypanosoma cruzi [9] it was more than 30 µg/mL. For the same compound, the inhibition in experiment [2] came to 52%. The MIC in experiment [3] and in [5] was more than 30 µg/mL each time.
In experiment [2], `CN(C)CCCNCc1cccc2c1Oc1c(CNCCCN(C)C)cccc1C2(C)C` returned an inhibition of 13.8%. In addition, the results for the EC50 in the experiment with Leishmania donovani [8], in the experiment on Trypanosoma cruzi [9] and with Trypanosoma brucei [10] were more than 30 µg/mL, more than 30 µg/mL and 3.32 µg/mL (≈ 7.57 µM), respectively. For the same compound, the MIC in experiment [3] and in experiment [5] was more than 300 µg/mL in each case.
`CN(C)CCCNCCCc1cccc2c1Oc1c(CCCNCCCN(C)C)cccc1C2(C)C` gave an inhibition in [2] of 63%. Further, the figures for the EC50 in the experiment with Trypanosoma brucei [11], with Leishmania donovani [8] and in the experiment on Trypanosoma cruzi [9] were 0.07 µg/mL (≈ 0.141 µM), more than 30 µg/mL and more than 30 µg/mL, respectively. Moreover, the MIC in experiment [3] and in experiment [5] was more than 30 µg/mL each time.
In the case of `O=C(Cn1ccnc1[N+](=O)[O-])NCc1ccccc1` [BENZNIDAZOLE], the EC50 in the experiment with Trypanosoma cruzi [12] is 8.5 µg/mL (≈ 32.7 µM).
Regarding `N=C(N)c1ccc(OCCCCCOc2ccc(C(=N)N)cc2)cc1` [PENTAMIDINE], the EC50 with Trypanosoma brucei [13] is 0.01 µg/mL (≈ 0.0294 µM).
`CN(C)CCCNC(=O)c1cccc2c1Oc1c(C(=O)NCCCN(C)C)cccc1C2(C)C` registered an inhibition in [2] of 40%. For the same compound, the EC50 is more than 30 µg/mL in the experiment with Leishmania donovani [8], more than 30 µg/mL in the experiment with Trypanosoma cruzi [9] and 4.5 µg/mL (≈ 9.64 µM) in the experiment with Trypanosoma brucei [14]. For the same compound, the MIC in experiment [3] and in [5] was more than 300 µg/mL throughout.
The compound `CN(C)CCCNC(=O)CCc1cccc2c1Oc1c(CCC(=O)NCCCN(C)C)cccc1C2(C)C` yielded an inhibition in experiment [2] of 58%. Besides, the EC50 is 17 µg/mL (≈ 32.6 µM) with Leishmania donovani [15], more than 30 µg/mL with Trypanosoma cruzi [9] and 4.3 µg/mL (≈ 8.23 µM) in the experiment with Trypanosoma brucei [16]. Also, the MIC in experiment [3] and in [5] was more than 300 µg/mL each time.
